From US20080014253A1, “Lipid-Based Drug Delivery Systems Containing Unnatural Phospholipase A2 Degradable Lipid Derivatives and the Therapeutic Uses Thereof” (priority 2004, published 2008)
“Also recorded” adds a separate entry of the source.

Tests used:
[1] = format: physicochemical; conditions: for Main-transition Tm (peak position) / Pre-transition Tm (peak position): multilamellar liposomes, scan rate 20° C./h; for pre-transition of the lipid membrane (Cp-curves): one-component multilamellar liposomes
Procedure: FIG. 3. Heat capacity, CP, obtained using differential scanning calorimetry at a scan rate of 20° C./h for 0.15 mM multilamellar liposomes: (A) 1-O-DPPC′ (left), DPPC (middle), and 1-O-DPPC (right). (B) 1-O-DPPG′ (left), DPPG (middle) and 1-O-DPPG (right).
By replacing the ester linkage in the C-1 position with an ether bond, these unnatural phospholipids can furthermore be used as novel prodrug anticancer lipids to make liposomal microcarriers that can be degraded to active anticancer lysoetherlipids by PLA2 [27]. The lipid prodrug analogs (1-O-DPPC and 1-O-DPPG) were synthesized as described earlier. 1,2-dipalmitoyl-sn-glycero-3-phosphocholine (DPPC), 1,2-dipalmitoyl-sn-glycero-3-phosphoglycerol (DPPG), and 1,2-distearoyl-sn-glycero-3-phosphoethanolamine poly(ethylene glycol)2000 (DSPE-PEG2000) were purchased from Avanti Polar Lipids, AL, USA. Multi- and unilamellar liposomes were hydrated in a HEPES buffer solution (10 mM HEPES, 110 mM KCl, 1 mM NaN3, 30 μM CaCl2, 10 μM NaEDTA, pH 7.5) and prepared as described in previous work. Differential scanning calorimetry was carried out in the upscan mode at a scanrate of 20° C./h using multilamellar liposomes. The PLA2 lag time measurements on 1-O-DPPC′ unilamellar liposomes incorporated with small amounts of 1-O-DPPG′ or DSPE-PEG2000 lipids were performed in the gel-to-fluid main phase transition range and the degree of lipid hydrolysis was analyzed using HPLC techniques.
The heat capacity (Cp) curves obtained using differential scanning calorimetry are shown in FIG. 3 for one-component 1-O-DPPC′ and 1-O-DPPG′ multilamellar liposomes. The Cp-curves show a main peak at 40.1° C. and 40.6° C. reflecting the chain disordering gel-to-fluid main phase transition of the 1-O-DPPC′ and 1-O-DPPG′ lipid membranes, respectively. […] This leads to the formation of low temperature ordered and non-corrugated gel phase (Lβ) that prevails until the unset of the main transition giving rise to a concomitant increase in the integrated melting enthalpy of the main transition (Table 1). Since the 1-O-DPPC′ and 1-O-DPPG′ lipids undergo a transition from an ordered configuration in the low temperature non-corrugated gel phase to a disordered configuration in the high temperature fluid phase without passing through the ripple phase, the integrated melting enthalpy is expected to be higher than for the natural DPPC and DPPG ripple phase forming lipids, which undergo a transition to the fluid phase from a ripple phase with a higher energy than the non-corrugated gel phase. In order to exclude the possibility that the abolished ripple transition is due to having an ether bond in the C-1 position, we have in FIG. 3 also shown Cp-curves obtained on 1-O-DPPC and 1-O-DPPG multilamellar liposomes. Clearly, these Cp-curves show the same characteristic phase behavior as the natural DPPC and DPPG lipids with a pre-transition a few degrees below the main phase transition peak underlining that it is the position of the phosphate head group in the C-3 position on the natural phospholipids that is crucial for ripple formation.

human secretory PLA2 = molecular target: T1, human secretory PLA2 (Homo sapiens, UniProt P14555); assay: Hydrolysis of unilamellar liposomes by human secretory PLA2 from human tear fluid; format: biochemical
T1 construct: from tissue; host or cells: freshly prepared human tear fluid
T1 sequence (P14555 21-144): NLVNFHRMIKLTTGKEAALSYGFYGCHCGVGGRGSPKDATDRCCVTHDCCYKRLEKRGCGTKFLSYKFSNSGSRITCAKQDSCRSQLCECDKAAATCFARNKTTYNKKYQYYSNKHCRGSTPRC
Procedure: FIG. 4. Characteristic reaction time profiles at 40° C. for PLA2 hydrolysis of unilamellar. (A) 0.15 mM 1-O-DPPC′ liposomes incubated with 150 nM PLA2 (A. piscivorus piscivorus). (B) 0.15 mM 1-O-DPPG′ liposomes incubated with human secretory PLA2 from 20 μL freshly prepared human tear fluid (B). The PLA2 hydrolysis reaction is monitored by intrinsic fluorescence (solid line) from the enzyme and 90° static light scattering (dashed lines) from the lipid suspension. After adding PLA2 to the equilibrated liposome suspension a characteristic lag time, τ, follows before a sudden increase in the catalytic activity takes place (A).
FIG. 6. (A) PLA2 (A. piscivorus piscivorus) hydrolysis of 1-O-DPPC′ liposomes containing 0 mol % (▪), 2 mol % (▴), and 10 mol % (∘) 1-O-DPPG′ lipids, and 5 mol % (▾) DSPE-PEG2000 polymer lipids determined by HPLC [28]. The percent lipid hydrolysis is determined 1000 s after the unset of the burst. The concentration of the liposomes was 0.15 mM and the concentration of PLA2 was 150 nM. (B) Hydrolysis of 1-O-DPPG′ unilamellar liposomes determined by HPLC [28]. The PLA2 catalyzed lipid hydrolysis is determined as a function of time after addition of 20 μL freshly prepared human tear fluid to 0.15 mM 1-O-DPPG′ liposomes. […]

| Main-transition ΔHm (melting enthalpy) [1] | Pre-transition ΔH (melting enthalpy) [1] | Main-transition Tm (peak position) [1] | Pre-transition Tm (peak position) [1] | Compound | onset of hydrolysis / lag time (human secretory PLA2; 0.15 mM liposomes, 20 μL human tear fluid, 40° C.) | activity of human secretory PLA2 towards liposomes (human secretory PLA2; liposomes formed by the lipid) | pre-transition of the lipid membrane (Cp-curves) [1] |
| --- | --- | --- | --- | --- | --- | --- | --- |
| 9.8 kcal/mol | 1.31 kcal/mol | 40.6 °C | 34.3 °C | CCCCCCCCCCCCCCCC(=O)OC[C@H](COP(=O)(O)OCC(O)CO)OC(=O)CCCCCCCCCCCCCCC (stereo partly drawn) [DPPG, 1,2-dipalmitoyl-sn-glycero-3-phosphoglycerol] |  |  |  |
| 8.5 kcal/mol | 0.84 kcal/mol | 42.6 °C | 32.0 °C | CCCCCCCCCCCCCCCCOC[C@H](COP(=O)([O-])OCC[N+](C)(C)C)OC(=O)CCCCCCCCCCCCCCC [1-O-DPPC, 1-O-hexadecyl-2-hexadecanoyl-sn-glycero-3-phosphocholine] |  |  |  |
| 9.1 kcal/mol | 0.58 kcal/mol | 41.8 °C | 34.1 °C | 1-O-hexadecyl-2-hexadecanoyl-sn-glycero-3-phosphoglycerol [1-O-DPPG] |  |  |  |

More lines, now with the values behind:

| Compound | Main-transition ΔHm (melting enthalpy) [1] | Pre-transition ΔH (melting enthalpy) [1] | Main-transition Tm (peak position) [1] | Pre-transition Tm (peak position) [1] | onset of hydrolysis / lag time (human secretory PLA2; 0.15 mM liposomes, 20 μL human tear fluid, 40° C.) | activity of human secretory PLA2 towards liposomes (human secretory PLA2; liposomes formed by the lipid) | pre-transition of the lipid membrane (Cp-curves) [1] |
| --- | --- | --- | --- | --- | --- | --- | --- |
| CCCCCCCCCCCCCCCC(=O)OC[C@H](COP(=O)([O-])OCC[N+](C)(C)C)OC(=O)CCCCCCCCCCCCCCC [DPPC, 1,2-dipalmitoyl-sn-glycero-3-phosphocholine] | 8.7 kcal/mol | 1.2 kcal/mol | 40.5 °C | 31.9 °C |  |  |  |
| (S)-1-O-hexadecyl-3-hexadecanoyl-glycero-2-phosphoglycerol [1-O-DPPG′] | 11.3 kcal/mol |  | 40.6 °C |  | immediate hydrolysis; also recorded: becomes active immediately after addition | high activity; also recorded: superior substrates | abolished |
| CCCCCCCCCCCCCCCCOC[C@@H](COC(=O)CCCCCCCCCCCCCCC)OP(=O)([O-])OCC[N+](C)(C)C [1-O-DPPC′, (S)-1-O-hexadecyl-3-hexadecanoyl-glycero-2-phosphocholine] | 12.8 kcal/mol |  | 40.1 °C |  |  |  | abolished |
